7 compounds from ChEMBL document CHEMBL3132835, “Biological evaluation and molecular modelling of didanosine derivatives” (Medchemcomm, 2014) can be followed below.

Series [1] in a line: Selectivity index, ratio of CCID50 for human PBMC to IC50 for HIV-1 HTLV-3B. The class given is functional.
Series [2] deals with Human immunodeficiency virus 1. In words: Antiviral activity against HIV-1 HTLV-3B infected in human PBMC cells assessed as inhibition of viral production by p24 antigen production/ELISA. Conditions: Human immunodeficiency virus 1, HTLV-3B. The class given is functional, organism-based.
Series [3] can be described thus: Cytotoxicity against human PBMC assessed as inhibition of cell growth by trypan blue staining. The format is cell-based. To be noted: read-out: CCID50.
Series [4] deals with Human immunodeficiency virus 1. In words: Antiviral activity against wild type HIV-1 isolate infected in human PBMC cells assessed as inhibition of viral production by p24 antigen production/ELISA. The format is functional, organism-based. To be noted: Human immunodeficiency virus 1, PBMC.
A short description of series [5]: Half life in rat. The class given is ADME, organism-based. Conditions: in vivo.
Series [6] has as its system Human immunodeficiency virus 1. Briefly: Fold resistance, ratio of IC50 for NRTI-resistant HIV-1 D67N, T69D, K70R, A98G, V118I, M184V, T215F and K219Q mutant to wild type HIV-1 isolate infected in human PBMC cells. The class given is functional.

Each structure is given as a SMILES string.

Turning to `CCCCCCCOC(=O)OC[C@@H]1CC[C@H](n2cnc3c(=O)nc[nH]c32)O1`, the “Selectivity Index” value in series [1] was 1.7. In addition, in series [2], the IC50 came to 300 µM. The CC50 in series [3] stood at 520 µM.

Regarding `O=c1[nH]cnc2c1ncn2[C@H]1CC[C@@H](CO)O1` [DIDANOSINE], the figures for the IC50 in series [4] and in series [2] were 3.42 µM and 40 µM, respectively. In addition, the “Selectivity Index” value in series [1] is on record as 2.3. In addition, in series [3], the CC50 was 100 µM. For the same compound, the half-life in series [5] was 60 min. For the same compound, the “Ratio IC50” value in series [6] came to 900.

Regarding `CCCCCCOC(=O)OC[C@@H]1CC[C@H](n2cnc3c(=O)nc[nH]c32)O1`, the “Selectivity Index” value in series [1] was found to be 5.2. Further, the IC50 in series [2] was found to be 40 µM. Further, in series [3], the CC50 came to 220 µM.

Consider `CCOC(=O)OC[C@@H]1CC[C@H](n2cnc3c(=O)nc[nH]c32)O1`, for which the “Selectivity Index” value in series [1] stood at 1.2. For the same compound, the IC50 in series [2] amounted to 490 µM. For the same compound, in series [3], the CC50 was determined as 570 µM.

For `CCCCCOC(=O)OC[C@@H]1CC[C@H](n2cnc3c(=O)nc[nH]c32)O1`, the figures for the IC50 in series [4] and in series [2] were 6.49 µM and 30 µM, respectively. For the same compound, the “Selectivity Index” value in series [1] is 200. In addition, in series [3], the CC50 was determined as 7000 µM. In series [6], the “Ratio IC50” value turned out to be 600.

With `Cc1cn([C@H]2C[C@H](N=[N+]=[N-])[C@@H](CO)O2)c(=O)[nH]c1=O` [ZIDOVUDINE], in series [4], the IC50 turned out to be 0.216 µM. Also, the “Ratio IC50” value in series [6] stood at 4000.

As for `CCCCOC(=O)OC[C@@H]1CC[C@H](n2cnc3c(=O)nc[nH]c32)O1`, the “Selectivity Index” value in series [1] came to 2.9. In addition, the IC50 in series [2] was found to be 100 µM. Moreover, the CC50 in series [3] is 290 µM.
